Results: PubChem BioAssay (NCI)
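96-well plates; 48 h exposure; 5 concentrations. Endpoints by linear interpolation between flanking doses. Not reached: highest tested concentration assigned. The concentration for 50% growth inhibition is given as GI50. At the TGI there is no net growth.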 Where a SMILES comes first, the peptide text is derived from it. The star is where a group is joined. Cbz = O=C(OCc1ccccc1)*; CH2Cl = ClC*

Tested on: SK-MEL-28 melanoma
Assay: NCI-60 cell line screen, 48 h

Structure (SMILES) | GI50 | TGI
O=C(Nc1ccncc1)C(=O)c1cn(S(=O)(=O)c2ccc(F)cc2)c2ccccc12 | 6.82 µM | 36.2 µM
COc1c(OC[C@H](O)CN2CCOCC2)ccc2c3n(c(=NC(=O)c4cccnc4C)nc12)CCN3 | 0.465 µM | > 50 µM
O=C(c1ccccc1Br)C(F)(F)F | – | > 100 µM
COc1ccc(-c2nc3ccc(-c4nc5ccc(N6CCN(c7ccccc7)CC6)cc5[nH]4)cc3[nH]2)cc1OC | 1.66 µM | 3.24 µM
O=C(N[C@@H](c1ccc(Cl)c(Cl)c1)C1CNC1)c1ccc2cnccc2c1 | 0.301 µM | 3.43 µM
CO/N=C(\COc1ccc2c(c1)oc(=O)c1cc(OC)ccc12)c1ccc(OC)cc1 | > 100 µM | > 100 µM
O=C1OCC2=C1C(c1cccc(Br)c1)c1cc3c(cc1N2CCO)CCC3 (stereo not given) | 0.0564 µM | 10.3 µM
Nc1nc(/C=C\c2ccc([N+](=O)[O-])s2)nc(N2CCCC2)n1 | 9.33 µM | 23.6 µM
Clc1ccc2[nH]cc(-c3nnnn3-c3ccccc3)c2c1 | 14.3 µM | > 100 µM
Oc1cccnc1[Se] | – | > 100 µM
CC(C)Oc1ccc2cc(-c3nn(CC4CCNCC4)c4ncnc(N)c34)ccc2c1 | 2.14 µM | 5.3 µM
CS(=O)(=O)CCNCc1nc(-c2ccc3ncnc(Nc4ccc(OCc5cccc(C(F)(F)F)c5)cc4)c3c2)cs1 | > 20.6 µM | > 25 µM
CC(C)CC(NC(=O)OCc1ccccc1)C(=O)NC(Cc1ccccc1)C(=O)CCl (stereo not drawn) (Cbz-Leu-Phe-CH2Cl; configuration not given here) | – | 3.97 µM
[Cl][Hg][c]1cc[c]([Hg][Cl])o1 | 5.6 µM | 19.9 µM
CCOC(=O)C(Cc1ccc(CCCC(=O)NCCC(=O)Nc2ccc3nc(C)sc3c2)cc1)C(=O)OCC | 28.7 µM | > 96.7 µM
NCCNc1c2c(c(NCCN)c3[nH]ccc13)C(=O)c1ccccc1C2=O | 0.439 µM | 1.8 µM
COc1cc(Cn2c(-c3ccccc3)c(Cl)c3c2-c2oncc2CC3)cc(OC)c1 | 8.52 µM | > 100 µM
COc1ccc(-c2nn(-c3ccc(NC(=O)c4ccc(Cl)c(Cl)c4)cc3)cc2-c2ccncc2)cc1Cl | > 50 µM | > 50 µM
COc1cc2c3c(n(C)c(=O)c2cc1OC)-c1cc2c(cc1/C3=C\CN)OCO2 | 7.38 µM | > 48.5 µM
CN(C)C(n1cc2c(c1)-c1ccc(Cl)cc1C(c1ccccc1F)=NC2)n1cc2c(c1)-c1ccc(Cl)cc1C(c1ccccc1F)=NC2 | – | > 100 µM
COc1ccc(/C=C2/N=C(c3ccccc3)N(c3c(C)n(C)n(-c4ccccc4)c3=O)C2=O)cc1OC | > 100 µM | > 100 µM
C[C@@H]1CC[C@@H]2[C@@H]1[C@H](OC(=O)/C=C/c1ccccc1)[C@]1(C3CCCCC3)C[C@@H](OC(=O)CO)[C@@]2(C)O1 | 3.59 µM | 15.1 µM
CCCN1C(=O)N(CCC)C2C1NC(=S)N2/N=C/C=C/c1ccccc1OC (stereo not given) | 6.26 µM | > 100 µM
CCn1c2ccccc2c2cc(NC(=O)Nc3ccc([N+](=O)[O-])cc3C)ccc21 | 5.33 µM | 26.2 µM
COc1cc2c(cc1OCCCNC(=O)c1cccc3c(=O)c4ccccc4[nH]c13)N=C[C@@H]1CCCN1C2=O | < 0.01 µM | 2.89 µM
COc1cccc2c1C(=O)c1c(O)c3c(c(O)c1C2=O)C[C@](O)(C(=O)CO)C[C@H]3O[C@@H]1C[C@@H](NC(=O)CCCCCN(C)C2(c3ccc(F)cc3)CC3CCC2C3)[C@H](O)[C@@H](C)O1 (stereo not given in full) | 7.25 µM | 15.7 µM
CCSc1ncnc2c1ncn2C1OC(CO)C(O)C1O (stereo not given) | > 48.3 µM | > 100 µM
COc1ccc2c(c1)C(=O)c1c-2c(N2CCN(C(=O)CNCCNCCO)CC2)nc2ccccc12 | 2.02 µM | 3.54 µM
COc1ccc(Nc2nnc(-c3cc(O)ccc3O)s2)cc1 | 27.1 µM | > 50 µM

Tested on: SN12C renal
Assay: NCI-60 cell line screen, 48 h

Structure (SMILES) | GI50 | TGI
O=C(Nc1ccncc1)C(=O)c1cn(S(=O)(=O)c2ccc(F)cc2)c2ccccc12 | 6.58 µM | > 100 µM
COc1c(OC[C@H](O)CN2CCOCC2)ccc2c3n(c(=NC(=O)c4cccnc4C)nc12)CCN3 | 1.72 µM | > 50 µM
O=C(c1ccccc1Br)C(F)(F)F | – | > 100 µM
COc1ccc(-c2nc3ccc(-c4nc5ccc(N6CCN(c7ccccc7)CC6)cc5[nH]4)cc3[nH]2)cc1OC | 5.98 µM | 18.6 µM
O=C(N[C@@H](c1ccc(Cl)c(Cl)c1)C1CNC1)c1ccc2cnccc2c1 | 0.715 µM | 7.45 µM
CO/N=C(\COc1ccc2c(c1)oc(=O)c1cc(OC)ccc12)c1ccc(OC)cc1 | > 100 µM | > 100 µM
O=C1OCC2=C1C(c1cccc(Br)c1)c1cc3c(cc1N2CCO)CCC3 (stereo not given) | 0.246 µM | 6.9 µM
Nc1nc(/C=C\c2ccc([N+](=O)[O-])s2)nc(N2CCCC2)n1 | 3.45 µM | 20.5 µM
Clc1ccc2[nH]cc(-c3nnnn3-c3ccccc3)c2c1 | 32.8 µM | > 100 µM
Oc1cccnc1[Se] | – | > 100 µM
CC(C)Oc1ccc2cc(-c3nn(CC4CCNCC4)c4ncnc(N)c34)ccc2c1 | 11.8 µM | 24.8 µM
CS(=O)(=O)CCNCc1nc(-c2ccc3ncnc(Nc4ccc(OCc5cccc(C(F)(F)F)c5)cc4)c3c2)cs1 | > 25 µM | > 25 µM
CC(C)CC(NC(=O)OCc1ccccc1)C(=O)NC(Cc1ccccc1)C(=O)CCl (stereo not drawn) (Cbz-Leu-Phe-CH2Cl; configuration not given here) | – | 3.39 µM
[Cl][Hg][c]1cc[c]([Hg][Cl])o1 | 2.25 µM | 12.9 µM
O=C1/C(=C/c2cccc(Cl)c2Cl)N=C(c2ccccc2)N1C1CC1 | 8.62 µM | 17.5 µM
CCOC(=O)C(Cc1ccc(CCCC(=O)NCCC(=O)Nc2ccc3nc(C)sc3c2)cc1)C(=O)OCC | 31.4 µM | > 100 µM
NCCNc1c2c(c(NCCN)c3[nH]ccc13)C(=O)c1ccccc1C2=O | 0.0978 µM | 0.994 µM
COc1cc(Cn2c(-c3ccccc3)c(Cl)c3c2-c2oncc2CC3)cc(OC)c1 | 12.7 µM | 38.4 µM
COc1ccc(-c2nn(-c3ccc(NC(=O)c4ccc(Cl)c(Cl)c4)cc3)cc2-c2ccncc2)cc1Cl | > 50 µM | > 50 µM
COc1cc2c3c(n(C)c(=O)c2cc1OC)-c1cc2c(cc1/C3=C\CN)OCO2 | 0.565 µM | > 100 µM
CN(C)C(n1cc2c(c1)-c1ccc(Cl)cc1C(c1ccccc1F)=NC2)n1cc2c(c1)-c1ccc(Cl)cc1C(c1ccccc1F)=NC2 | – | > 100 µM
COc1ccc(/C=C2/N=C(c3ccccc3)N(c3c(C)n(C)n(-c4ccccc4)c3=O)C2=O)cc1OC | > 100 µM | > 100 µM
C[C@@H]1CC[C@@H]2[C@@H]1[C@H](OC(=O)/C=C/c1ccccc1)[C@]1(C3CCCCC3)C[C@@H](OC(=O)CO)[C@@]2(C)O1 | 0.086 µM | 3.56 µM
CCCN1C(=O)N(CCC)C2C1NC(=S)N2/N=C/C=C/c1ccccc1OC (stereo not given) | 1.84 µM | 33.3 µM
CCn1c2ccccc2c2cc(NC(=O)Nc3ccc([N+](=O)[O-])cc3C)ccc21 | 9.3 µM | > 100 µM
COc1cc2c(cc1OCCCNC(=O)c1cccc3c(=O)c4ccccc4[nH]c13)N=C[C@@H]1CCCN1C2=O | < 0.01 µM | < 0.0126 µM
COc1cccc2c1C(=O)c1c(O)c3c(c(O)c1C2=O)C[C@](O)(C(=O)CO)C[C@H]3O[C@@H]1C[C@@H](NC(=O)CCCCCN(C)C2(c3ccc(F)cc3)CC3CCC2C3)[C@H](O)[C@@H](C)O1 (stereo not given in full) | 5.75 µM | 14.5 µM
CCSc1ncnc2c1ncn2C1OC(CO)C(O)C1O (stereo not given) | 0.449 µM | > 100 µM
COc1ccc2c(c1)C(=O)c1c-2c(N2CCN(C(=O)CNCCNCCO)CC2)nc2ccccc12 | 3.91 µM | 13.3 µM
COc1ccc(Nc2nnc(-c3cc(O)ccc3O)s2)cc1 | 7.73 µM | 19.2 µM
